Molecules are shown by their SMILES.

The experiment addresses T1, hCRTH2 receptor (Homo sapiens, UniProt Q9Y5Y4).
T1 construct: expressed in transfected cells; host or cells: HEK293
T1 sequence (Q9Y5Y4 1-395): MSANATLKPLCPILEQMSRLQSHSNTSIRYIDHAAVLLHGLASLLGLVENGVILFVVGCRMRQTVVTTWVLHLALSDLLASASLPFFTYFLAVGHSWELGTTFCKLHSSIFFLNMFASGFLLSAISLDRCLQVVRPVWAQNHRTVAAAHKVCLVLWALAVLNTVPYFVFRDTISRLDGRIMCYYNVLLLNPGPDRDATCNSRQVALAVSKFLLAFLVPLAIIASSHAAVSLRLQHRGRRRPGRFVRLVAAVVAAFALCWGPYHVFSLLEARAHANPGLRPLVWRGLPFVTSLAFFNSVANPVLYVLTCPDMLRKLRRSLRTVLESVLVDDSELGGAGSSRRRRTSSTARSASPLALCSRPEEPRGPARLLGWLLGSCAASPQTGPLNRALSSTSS
In words: Radioligand displacement assay (3H-PGD2) on hCRTH2 receptor membranes. In kind it is binding. The settings on record: antagonistic activity, 3H-PGD2 radioligand displacement, HEK293-hCRTH2 membranes. A general note: In a radioligand displacement assay an active substance lowers the binding of a labelled ligand.
`O=C(O)COc1ccc(Cl)cc1[C@@H]1c2ccc(F)c(F)c2CCN1C(=O)OCc1nc2ccccc2s1` [Example 319, (S)-1-(2-Carboxymethoxy-5-chloro-phenyl)-5,6-difluoro-3,4-dihydro-1H-isoquinoline-2-carboxylic acid benzothiazol-2-ylmethyl ester] displayed an IC50 of 1.44 nM.

Consider `O=C(O)COc1ccc(Cl)cc1[C@@H]1c2ccc(F)c(F)c2CCN1C(=O)OCc1nc2ccccc2o1` [Example 320, (S)-1-(2-Carboxymethoxy-5-chloro-phenyl)-5,6-difluoro-3,4-dihydro-1H-isoquinoline-2-carboxylic acid benzooxazol-2-ylmethyl ester], for which the IC50 stood at 0.52 nM. For `Cn1nc(COC(=O)N2CCc3c(ccc(F)c3F)[C@H]2c2cc(Cl)ccc2OCC(=O)O)c2ccccc21` [Example 321, (S)-1-(2-Carboxymethoxy-5-chloro-phenyl)-5,6-difluoro-3,4-dihydro-1H-isoquinoline-2-carboxylic acid 1-methyl-1H-indazol-3-ylmethyl ester] the value was 1.84 nM. On to `O=C(O)COc1ccc(Cl)cc1[C@@H]1c2ccc(F)c(F)c2CCN1C(=O)OCn1ncc2ccccc21` [Example 322, (S)-1-(2-Carboxymethoxy-5-chloro-phenyl)-5,6-difluoro-3,4-dihydro-1H-isoquinoline-2-carboxylic acid indazol-1-ylmethyl ester], for which the IC50 worked out at 0.53 nM. To `O=C(O)COc1ccc(Cl)cc1[C@@H]1c2ccc(F)c(F)c2CCN1C(=O)OCc1noc2ccccc12` [Example 323, (S)-1-(2-Carboxymethoxy-5-chloro-phenyl)-5,6-difluoro-3,4-dihydro-1H-isoquinoline-2-carboxylic acid benzo[d]isoxazol-3-ylmethyl ester] belongs 1.2 nM. To `O=C(O)COc1ccc(Cl)cc1[C@@H]1c2ccc(F)cc2CCN1C(=O)OCc1nccs1` [Example 324, (S)-1-(2-Carboxymethoxy-5-chloro-phenyl)-6-fluoro-3,4-dihydro-1H-isoquinoline-2-carboxylic acid thiazol-2-ylmethyl ester] belongs 6.26 nM; to `Cc1ncsc1CCOC(=O)N1CCc2cc(F)ccc2[C@H]1c1cc(Cl)ccc1OCC(=O)O` [Example 325, (S)-1-(2-Carboxymethoxy-5-chloro-phenyl)-6-fluoro-3,4-dihydro-1H-isoquinoline-2-carboxylic acid 2-(4-methyl-thiazol-5-yl)-ethyl ester], 21.3 nM; to `Cc1cnc(COC(=O)N2CCc3cc(F)ccc3[C@H]2c2cc(Cl)ccc2OCC(=O)O)s1` [Example 326, (S)-1-(2-Carboxymethoxy-5-chloro-phenyl)-6-fluoro-3,4-dihydro-1H-isoquinoline-2-carboxylic acid 5-methyl-thiazol-2-ylmethyl ester], 8.67 nM.

In turn, `Cc1csc(COC(=O)N2CCc3cc(F)ccc3[C@H]2c2cc(Cl)ccc2OCC(=O)O)n1` [Example 327, (S)-1-(2-Carboxymethoxy-5-chloro-phenyl)-6-fluoro-3,4-dihydro-1H-isoquinoline-2-carboxylic acid 4-methyl-thiazol-2-ylmethyl ester] yielded a half-inhibitory concentration (IC50) of 3.38 nM. For `Cc1ncc(COC(=O)N2CCc3cc(F)ccc3[C@H]2c2cc(Cl)ccc2OCC(=O)O)s1` [Example 328, (S)-1-(2-Carboxymethoxy-5-chloro-phenyl)-6-fluoro-3,4-dihydro-1H-isoquinoline-2-carboxylic acid 2-methyl-thiazol-5-ylmethyl ester], the IC50 came to 3.2 nM. As for `Cc1nc(COC(=O)N2CCc3cc(F)ccc3[C@H]2c2cc(Cl)ccc2OCC(=O)O)cs1` [Example 329, (S)-1-(2-Carboxymethoxy-5-chloro-phenyl)-6-fluoro-3,4-dihydro-1H-isoquinoline-2-carboxylic acid 2-methyl-thiazol-4-ylmethyl ester], the IC50 was 5.9 nM. For `Cc1cc(COC(=O)N2CCc3cc(F)ccc3[C@H]2c2cc(Cl)ccc2OCC(=O)O)on1` [Example 330, (S)-1-(2-Carboxymethoxy-5-chloro-phenyl)-6-fluoro-3,4-dihydro-1H-isoquinoline-2-carboxylic acid 3-methyl-isoxazol-5-ylmethyl ester], the IC50 was determined as 10.6 nM. For `Cc1conc1COC(=O)N1CCc2cc(F)ccc2[C@H]1c1cc(Cl)ccc1OCC(=O)O` [Example 331, (S)-1-(2-Carboxymethoxy-5-chloro-phenyl)-6-fluoro-3,4-dihydro-1H-isoquinoline-2-carboxylic acid 4-methyl-isoxazol-3-ylmethyl ester] the value was 7.29 nM; for `O=C(O)COc1ccc(Cl)cc1[C@@H]1c2ccc(F)cc2CCN1C(=O)OCc1cnccn1` [Example 332, (S)-1-(2-Carboxymethoxy-5-chloro-phenyl)-6-fluoro-3,4-dihydro-1H-isoquinoline-2-carboxylic acid pyrazin-2-ylmethyl ester], 7.65 nM. For `O=C(O)COc1ccc(Cl)cc1[C@@H]1c2ccc(F)cc2CCN1C(=O)OCc1ccncn1` [Example 333, (S)-1-(2-Carboxymethoxy-5-chloro-phenyl)-6-fluoro-3,4-dihydro-1H-isoquinoline-2-carboxylic acid pyrimidin-4-ylmethyl ester] the value was 45.7 nM; for `O=C(O)COc1ccc(Cl)cc1[C@@H]1c2ccc(F)cc2CCN1C(=O)OCc1cncnc1` [Example 334, (S)-1-(2-Carboxymethoxy-5-chloro-phenyl)-6-fluoro-3,4-dihydro-1H-isoquinoline-2-carboxylic acid pyrimidin-5-ylmethyl ester], 4.95 nM; for `O=C(O)COc1ccc(Cl)cc1[C@@H]1c2ccc(F)cc2CCN1C(=O)OCCc1ccccc1` [Example 335, (S)-1-(2-Carboxymethoxy-5-chloro-phenyl)-6-fluoro-3,4-dihydro-1H-isoquinoline-2-carboxylic acid phenethyl ester], 13.3 nM. For `O=C(O)COc1ccc(Cl)cc1[C@@H]1c2ccc(F)cc2CCN1C(=O)OCCc1cccc(F)c1` [Example 336, (S)-1-(2-Carboxymethoxy-5-chloro-phenyl)-6-fluoro-3,4-dihydro-1H-isoquinoline-2-carboxylic acid 2-(3-fluoro-phenyl)-ethyl ester] the value was 11.5 nM; for `Cn1nccc1COC(=O)N1CCc2cc(F)ccc2[C@H]1c1cc(Cl)ccc1OCC(=O)O` [Example 337, (S)-1-(2-Carboxymethoxy-5-chloro-phenyl)-6-fluoro-3,4-dihydro-1H-isoquinoline-2-carboxylic acid 2-methyl-2H-pyrazol-3-ylmethyl ester], 3.61 nM; for `Cc1cc(COC(=O)N2CCc3cc(F)ccc3[C@H]2c2cc(Cl)ccc2OCC(=O)O)n(C)n1` [Example 338, (S)-1-(2-Carboxymethoxy-5-chloro-phenyl)-6-fluoro-3,4-dihydro-1H-isoquinoline-2-carboxylic acid 2,5-dimethyl-2H-pyrazol-3-ylmethyl ester], 3.13 nM. The molecule `CCn1nc(C)cc1CCOC(=O)N1CCc2cc(F)ccc2[C@H]1c1cc(Cl)ccc1OCC(=O)O` [Example 339, (S)-1-(2-Carboxymethoxy-5-chloro-phenyl)-6-fluoro-3,4-dihydro-1H-isoquinoline-2-carboxylic acid 2-(2-ethyl-5-methyl-2H-pyrazol-3-yl)-ethyl ester] had an IC50 of 11.5 nM. To `Cn1cncc1COC(=O)N1CCc2cc(F)ccc2[C@H]1c1cc(Cl)ccc1OCC(=O)O` [Example 340, (S)-1-(2-Carboxymethoxy-5-chloro-phenyl)-6-fluoro-3,4-dihydro-1H-isoquinoline-2-carboxylic acid 3-methyl-3H-imidazol-4-ylmethyl ester] belongs 5.17 nM; to `Cc1cc(C)n(CCOC(=O)N2CCc3cc(F)ccc3[C@H]2c2cc(Cl)ccc2OCC(=O)O)n1` [Example 341, (S)-1-(2-Carboxymethoxy-5-chloro-phenyl)-6-fluoro-3,4-dihydro-1H-isoquinoline-2-carboxylic acid 2-(3,5-dimethyl-pyrazol-1-yl)-ethyl ester], 11.1 nM. `Cc1cnn(COC(=O)N2CCc3cc(F)ccc3[C@H]2c2cc(Cl)ccc2OCC(=O)O)c1` [Example 342, (S)-1-(2-Carboxymethoxy-5-chloro-phenyl)-6-fluoro-3,4-dihydro-1H-isoquinoline-2-carboxylic acid 4-methyl-pyrazol-1-ylmethyl ester] returned a half-maximal inhibitory concentration (IC50) of 17.9 nM.

Turning to `Cc1nc2ccccc2n1CCOC(=O)N1CCc2cc(F)ccc2[C@H]1c1cc(Cl)ccc1OCC(=O)O` [Example 343], the IC50 came out at 266 nM. For `O=C(O)COc1ccc(Cl)cc1[C@@H]1c2ccc(F)cc2CCN1C(=O)OCc1nc2ccccc2s1` [Example 344, (S)-1-(2-Carboxymethoxy-5-chloro-phenyl)-6-fluoro-3,4-dihydro-1H-isoquinoline-2-carboxylic acid benzothiazol-2-ylmethyl ester], the IC50 was determined as 37.8 nM. In turn, `O=C(O)COc1ccc(Cl)cc1[C@@H]1c2ccc(F)cc2CCN1C(=O)OCc1nc2ccccc2o1` [Example 345, (S)-1-(2-Carboxymethoxy-5-chloro-phenyl)-6-fluoro-3,4-dihydro-1H-isoquinoline-2-carboxylic acid benzooxazol-2-ylmethyl ester] registered an IC50 of 12.4 nM. For `Cn1nc(COC(=O)N2CCc3cc(F)ccc3[C@H]2c2cc(Cl)ccc2OCC(=O)O)c2ccccc21` [Example 346, (S)-1-(2-Carboxymethoxy-5-chloro-phenyl)-6-fluoro-3,4-dihydro-1H-isoquinoline-2-carboxylic acid 1-methyl-1H-indazol-3-ylmethyl ester] the value was 1.16 nM.

By IC50 is commonly meant the concentration that inhibits the measured activity by half.

The values are drawn from patent US8575158B2, “1-phenyl-substituted heterocyclyl derivatives and their use as prostaglandin D2 receptor modulators” (Actelion Pharmaceuticals Ltd., priority 2010, dated 2013).
